From article PMC3625590, “NBM-T-L-BMX-OS01, Semisynthesized from Osthole, Is a Novel Inhibitor of Histone Deacetylase and Enhances Learning and Memory in Rats” (Evidence-based Complementary and Alternative Medicine : eCAM, 2013) come the findings set out here.

For experiment [1], the system named is Sco-induced amnesia rats. The experiment is described as follows: Water-maze learning, Sco-induced memory impairment. It is filed as in vivo, Sprague-Dawley rats. Particulars: Sco 1.5 mg/kg/d; BMX or SAHA 5 mg/kg/d i.p. The protocol: SAHA was supplied by NatureWise Biotech and Medicals Corporation (Taipei, Taiwan). […] (St. Louis, MO, USA). The BMX and SAHA stock (100 mg/mL) was dissolved in DMSO and diluted with saline to a final concentration of 0.5 mg/mL (in 0.5% DMSO/saline). […] SD rats were randomly divided into 3 groups. For the naïve animal experiments, the BMX-injected or SAHA-injected groups were injected with BMX (5 mg/kg/d) or SAHA (5 mg/kg/d) intraperitoneally 7 d prior to behavioral experiments and during the experimentation. The control group received the 0.5% DMSO/saline injection. The injection volume was 10 μL/g of body weight. The injections were performed once per day. For the amnesia experiment, the protocol was adopted from previous studies with modifications. […] The control group received the 0.5% DMSO/saline injection. The injection volume was 10 μL/g of body weight. […] The method was adopted from that of a previous study with modifications. A plastic circular pool 2.0 m in diameter and 0.6 m in height was filled with water (25 ± 2°C) to a depth of 20 cm. A circular platform (8 cm in diameter) was placed at a specific location from the edge of the pool and submerged 2-3 cm below the water surface. Water was made cloudy by adding toxic-free dye. Distinctive visual cues were set on the wall. For spatial learning, animals were subjected to 3 trials per day, with one trial early in the morning, one trial at noon, and another in the late afternoon. The training procedure lasted 4 days, and a total of 12 trials were given. This procedure was adopted because spaced training is a better paradigm to facilitate memory consolidation. For these trials, the rats were positioned at different starting points spaced equally around the perimeter of the pool in random order. They had 120 s to find the hidden platform. If a rat could not find the platform, it was guided to the platform and was allowed to remain there for 20 s. The time each animal took to reach the platform was recorded as the escape latency. A probe trial of 120 s was given on day 5 to test their memory retention. The rats were placed in the pool with the platform removed, and the time they spent in each quadrant (Quadrants 1, 2, 3, and 4) was recorded. Quadrant 4 is the target quadrant. For the trained and swimming control experiments, rats in the trained group were subjected to the regular water maze learning procedure. At the end of the experiment, the rats were subjected to visible platform learning. For visible platform learning, a flag was mounted on the platform, and the platform was raised 2.5 cm above the surface of the water. In addition, the dye had not been added, so that the animals could see the location of the platform from the water. […]

Experiment [2] concerns Sco-induced amnesia rats. The experiment is described as follows: Novel object recognition, Sco-induced memory impairment. It is filed as in vivo, Sprague-Dawley rats. The following applies: Sco 1.5 mg/kg/d; BMX or SAHA 5 mg/kg/d i.p.; 8 h. The protocol: SAHA was supplied by NatureWise Biotech and Medicals Corporation (Taipei, Taiwan). […] (St. Louis, MO, USA). The BMX and SAHA stock (100 mg/mL) was dissolved in DMSO and diluted with saline to a final concentration of 0.5 mg/mL (in 0.5% DMSO/saline). […] SD rats were randomly divided into 3 groups. For the naïve animal experiments, the BMX-injected or SAHA-injected groups were injected with BMX (5 mg/kg/d) or SAHA (5 mg/kg/d) intraperitoneally 7 d prior to behavioral experiments and during the experimentation. The control group received the 0.5% DMSO/saline injection. The injection volume was 10 μL/g of body weight. The injections were performed once per day. For the amnesia experiment, the protocol was adopted from previous studies with modifications. […] The control group received the 0.5% DMSO/saline injection. The injection volume was 10 μL/g of body weight. […] The method used was adopted from that of a previous study with modifications. During familiarization, rats were allowed to explore 2 identical objects in an open field box (90 × 70 × 60 cm) for 5 min. The criteria used for exploration were a distance less than 1.5 cm between the rat and the object or direct contact with the object. […] The time that each rat spent exploring the 2 objects during a 5 min period was recorded. […]

Counter-ions that a name gives are not always drawn.

Regarding `CN1[C@@H]2C[C@@H](OC(=O)[C@H](CO)c3ccccc3)C[C@H]1[C@@H]1O[C@@H]12` [Sco, Scopolamine hydrochloride], in the experiment with Sco-induced amnesia rats [1], the “escape latency in finding the hidden platform” value is recorded as “showed longer escape latency” and the “probe trial, time spent in target quadrant” value is on record as “spent less time in the quadrant where the platform had been placed”. For the same compound, the “exploratory preference for the novel object (NO)” value in the experiment on Sco-induced amnesia rats [2] is “showed no exploratory preference for the NO”.
